Ends that are not written are not given here.
Tests used:
[1] = test system: MC3T3-E1 subclone 4 cells; type: cell-based, murine; conditions: for Interpretation of combination index on collagen maturity at EC50: 69 pM; for Interpretation of combination index on collagen maturity at EC50 / Interpretation of combination index on collagen maturity at […] EC50: t-test vs additivity 1.0±0.15; for Interpretation of combination index on collagen maturity at […] EC50: 100 pM; for Emax for dose-effect curves on collagen maturity: MC3T3-E1, day 14; for effect on collagen maturity index: MC3T3-E1, vs cultures without peptide (FIG. 20); for Cl at […] EC50 (combination index on collagen maturity): at […] mean EC50 of GIP and GLP-2, 100 pM; for Cl at […] EC50 (combination index on collagen maturity) / Cl at EC50 (combination index on collagen maturity): Chou & Talalay, mean ± SD; for Cl at EC50 (combination index on collagen maturity): at mean EC50 of GIP and GLP-2, 69 pM
Procedure: Briefly, MC3T3-E1 subclone 4 cells have been grown and propagated in α-MEM supplemented with 5% fetal bovine serum (FBS), 5% bovine calf serum (BCS), 100 U/mL penicillin, and 100 μg/mL streptomycin in a humidified atmosphere enriched with 5% CO2 at 37° C. […] This day was considered as day 1. The differentiation medium was replenished every two days. […] Cultures were rinsed at least six times with milliQ water, fixed in absolute ethanol, scrapped off the culture dish and transferred onto BaF2 windows where they were air-dried. Integrity of the collagen extracellular matrix was verified by comparing the obtained Fourier transform infrared spectrum with those of commercial collagen. Spectral analysis was performed using a Bruker Vertex 70 spectrometer (Bruker optics, Ettlingen, Germany) interfaced with a Bruker Hyperion 3000 infrared microscope equipped with a standard single element Mercury Cadmium Telluride (MCT) detector. Calibration of the infrared spectrometer is done once a week with a polystyrene film standard (Bruker optics). Infrared spectra were recorded at a resolution of 4 cm^-1, with an average of 32 scans in transmission mode. Background spectral images were collected under identical conditions from the same BaF2 windows at the beginning and end of each experiment to ensure instrument stability. At least 5 spectra were acquired for each condition and analyzed with a lab-made routine script (version 2.0) in Matlab R2016b (The Mathworks, Natick, MA). […] For GIP and GLP-2 dataset, the inventors used the collagen maturity data previously acquired and analyzed. First of all, collagen maturity obtained in control cultures, i.e. in the absence of double GIP/GLP-2 analogues, were averaged and subtracted to the all dataset. […] For each concentration of peptide, the mean, SD and number of events were computed. […] The GraphPad Prism analysis consisted in: […] Statistical Analysis […] Data are represented as mean±SD.

Murine Raw 264.7 cells = type: cell-based; conditions: for Emax, maximum inhibitory effect on osteoclastogenesis: Raw 264.7, * data obtained in previous experiments; for Cl at EC50 of GIP and GLP-2 (combination index for osteoclastogenesis): at 36.8 pM, Chou & Talalay; for Interpretation of combination index for osteoclastogenesis: at EC50 of GIP and GLP-2, 36.8 pM; for IC50 computed from curve fitting of osteoclastogenesis vs. peptide concentration: Raw 264.7, RANKL 10 ng/ml, 110 h, * values determined from previous experiments
Procedure: Murine Raw 264.7 cells were grown and expanded in propagation medium containing Dulbecco's modified Eagle medium (DMEM-Gibco) supplemented with 10% fetal bovine serum (FBS-Lonza), 100 U/mL penicillin and 100 μg/mL streptomycin (Gibco) in a humidified atmosphere enriched with 5% CO2 at 37° C. The first passage after thawing Raw 264.7 cells was considered as passage 1. Cells were used up to passage 8. […] Cultures were rinsed three times in distilled water and the residual activity was inhibited by 4% NaF (Sigma-Aldrich) for 30 min. Cells were then rinsed in distilled water and allowed to dry. TRAcP positive cells, with more than three nuclei, were identified as osteoclasts. The number of newly generated osteoclasts was assessed using light microscopic examination by a histologist that was blinded to the treatment intervention. […] For each concentration of peptide, the mean, SD and number of events were computed.

Murine MC3T3-E1 cells = assay: Collagen maturity assay in MC3T3-E1 cultures (Example 2); type: cell-based; conditions: MC3T3-E1 cultures (FIGS. 5-7)
Procedure: At confluence, the propagation medium was replaced by the differentiation medium containing αMEM supplemented with 5% FBS, 5% bovine calf serum, 100 U/mL penicillin, 100 μg/mL streptomycin, 50 μg/ml ascorbic acid and various concentrations of analogues. This day was considered as day 1. The differentiation medium was replenished every two days. […] Cultures were rinsed at least six times with milliQ water, fixed in absolute ethanol, scrapped off the culture dish and transferred onto BaF2 windows where they were air-dried. Integrity of the collagen extracellular matrix was verified by comparing the obtained Fourier transform infrared spectrum with those of commercial collagen. Spectral analysis was performed using a Bruker Vertex 70 spectrometer (Bruker optics, Ettlingen, Germany) interfaced with a Bruker Hyperion 3000 infrared microscope equipped with a standard single element Mercury Cadmium Telluride (MCT) detector. Infrared spectra were recorded at a resolution of 4 cm^−1, with an average of 32 scans in transmission mode. Background spectral images were collected under identical conditions from the same BaF2 windows at the beginning and end of each experiment to ensure instrument stability. At least 20 spectra were acquired for each condition and analyzed with a lab-made routine script in Matlab R2016b (The Mathworks, Natick, MA).

Compound	EC50 [1]	Interpretation of combination index on collagen maturity at EC50 [1]	Interpretation of combination index on collagen maturity at […] EC50 [1]	Emax for dose-effect curves on collagen maturity [1]	effect on collagen maturity index [1]	Cl at […] EC50 (combination index on collagen maturity) [1]	Cl at EC50 (combination index on collagen maturity) [1]	Emax, maximum inhibitory effect on osteoclastogenesis (Murine Raw 264.7 cells)	Cl at EC50 of GIP and GLP-2 (combination index for osteoclastogenesis) (Murine Raw 264.7 cells)	Interpretation of combination index for osteoclastogenesis (Murine Raw 264.7 cells)	EC50 (Murine Raw 264.7 cells)	IC50 computed from curve fitting of osteoclastogenesis vs. peptide concentration (Murine Raw 264.7 cells)	profile of collagen maturity versus concentration (Murine MC3T3-E1 cells)
CC[C@H](C)[C@H](NC(=O)[C@H](Cc1ccccc1)NC(=O)[C@H](CC(=O)O)NC(=O)[C@H](CCCNC(=N)N)NC(=O)[C@H](C)NC(=O)[C@H](C)NC(=O)[C@H](CC(C)C)NC(=O)[C@H](CC(N)=O)NC(=O)[C@H](CC(=O)O)NC(=O)[C@H](CC(C)C)NC(=O)[C@@H](NC(=O)[C@@H](NC(=O)[C@H](CO)NC(=O)[C@H](Cc1ccc(O)cc1)NC(=O)[C@H](CC(=O)O)NC(=O)[C@H](CO)NC(=O)[C@@H](NC(=O)[C@H](Cc1ccccc1)NC(=O)[C@@H](NC(=O)CNC(=O)[C@H](CC(=O)O)NC(=O)[C@H](C)NC(=O)[C@@H](N)Cc1c[nH]cn1)[C@@H](C)O)[C@@H](C)CC)[C@@H](C)O)[C@@H](C)CC)C(=O)N[C@@H](CC(N)=O)C(=O)N[C@@H](Cc1c[nH]c2ccccc12)C(=O)N[C@@H](CC(C)C)C(=O)N[C@H](C(=O)N[C@@H](CCC(N)=O)C(=O)N[C@H](C(=O)N[C@@H](CCCCN)C(=O)N[C@H](C(=O)N[C@H](C(=O)N[C@@H](CC(=O)O)C(N)=O)[C@@H](C)O)[C@@H](C)CC)[C@@H](C)O)[C@@H](C)CC [Co-3]	0.0194 nM	Additive (CI 0.85-1.15: additive)	Additive (CI 0.85-1.15: additive)	121.8%	very modest	1.79 ± 2.20	1.29 ± 1.65	37.88%	48.00	Very strong antagonism (CI>10: very strong antagonism)	–	–	–
CC[C@H](C)[C@H](NC(=O)[C@H](Cc1ccccc1)NC(=O)[C@H](CC(=O)O)NC(=O)[C@H](CCCNC(=N)N)NC(=O)[C@H](C)NC(=O)[C@H](C)NC(=O)[C@H](CC(C)C)NC(=O)[C@H](CC(N)=O)NC(=O)[C@H](CC(=O)O)NC(=O)[C@H](CC(C)C)NC(=O)[C@@H](NC(=O)[C@@H](NC(=O)[C@H](CO)NC(=O)[C@H](Cc1ccc(O)cc1)NC(=O)[C@H](CC(=O)O)NC(=O)[C@H](CO)NC(=O)[C@@H](NC(=O)[C@H](Cc1ccccc1)NC(=O)[C@@H](NC(=O)CNC(=O)[C@H](CC(=O)O)NC(=O)[C@H](C)NC(=O)[C@@H](N)Cc1c[nH]cn1)[C@@H](C)O)[C@@H](C)CC)[C@@H](C)O)[C@@H](C)CC)C(=O)N[C@@H](CC(N)=O)C(=O)N[C@@H](Cc1c[nH]c2ccccc12)C(=O)N[C@@H](CC(C)C)C(=O)N[C@H](C(=O)N[C@@H](CCC(N)=O)C(=O)N[C@H](C(=O)N[C@@H](CCCCN)C(=O)NCC(=O)N[C@@H](CCCCN)C(=O)N[C@@H](CCCCN)C(N)=O)[C@@H](C)O)[C@@H](C)CC [Co-19]	0.0229 nM	Additive (CI 0.85-1.15: additive)	Additive (CI 0.85-1.15: additive)	118.1%	very modest	389.0 ± 864	277.7 ± 617.4	62.36%	1.94	Antagonism (CI 1.45-3.3: antagonism)	0.0324 nM	0.0324 nM	–
CC[C@H](C)[C@H](NC(=O)[C@H](CO)NC(=O)[C@H](CCSC)NC(=O)[C@H](CC(=O)O)NC(=O)[C@H](CO)NC(=O)CNC(=O)[C@H](Cc1ccccc1)NC(=O)[C@H](CO)NC(=O)CNC(=O)[C@H](CCC(=O)O)NC(=O)CNC(=O)[C@@H](N)Cc1c[nH]cn1)C(=O)N[C@@H](C)C(=O)N[C@@H](CC(C)C)C(=O)N[C@@H](CC(=O)O)C(=O)N[C@@H](CCCCN)C(=O)N[C@@H](CC(C)C)C(=O)N[C@@H](C)C(=O)N[C@@H](C)C(=O)N[C@@H](CCCNC(=N)N)C(=O)N[C@@H](CC(=O)O)C(=O)N[C@@H](Cc1ccccc1)C(=O)N[C@H](C(=O)N[C@@H](CC(N)=O)C(=O)N[C@@H](Cc1c[nH]c2ccccc12)C(=O)N[C@@H](CC(C)C)C(=O)N[C@@H](CC(C)C)C(=O)N[C@@H](CCC(N)=O)C(=O)N[C@H](C(=O)N[C@@H](CCCCN)C(=O)N[C@H](C(=O)N[C@H](C(=O)N[C@@H](CC(=O)O)C(=O)NCC(=O)N[C@@H](C)C(=O)N[C@@H](C)C(=O)N[C@@H](CC(=O)O)C(=O)N[C@@H](CC(=O)O)C(=O)N[C@@H](CC(=O)O)C(=O)N[C@@H](CC(=O)O)C(=O)N[C@@H](CC(=O)O)C(=O)N[C@@H](CC(=O)O)C(N)=O)[C@@H](C)O)[C@@H](C)CC)[C@@H](C)O)C(C)C [GL-0001-Tag]	–	–	–	–	–	–	–	–	–	–	–	–	biphasic profile
CC[C@H](C)[C@H](NC(=O)[C@H](CO)NC(=O)[C@H](CCSC)NC(=O)[C@H](CC(=O)O)NC(=O)[C@H](CO)NC(=O)[C@@H](NC(=O)[C@H](Cc1ccccc1)NC(=O)[C@H](CO)NC(=O)CNC(=O)[C@H](CCC(=O)O)NC(=O)CNC(=O)[C@@H](N)Cc1c[nH]cn1)C(C)C)C(=O)N[C@H](C(=O)N[C@@H](CC(C)C)C(=O)N[C@@H](CC(=O)O)C(=O)N[C@@H](CCCCN)C(=O)N[C@@H](CC(C)C)C(=O)N[C@@H](C)C(=O)N[C@@H](C)C(=O)N[C@@H](CCCNC(=N)N)C(=O)N[C@@H](CC(=O)O)C(=O)N[C@@H](Cc1ccccc1)C(=O)N[C@H](C(=O)N[C@@H](CC(N)=O)C(=O)N[C@@H](Cc1c[nH]c2ccccc12)C(=O)N[C@@H](CC(C)C)C(=O)N[C@@H](CC(C)C)C(=O)N[C@@H](CCC(N)=O)C(=O)N[C@H](C(=O)N[C@@H](CCCCN)C(N)=O)[C@@H](C)O)C(C)C)C(C)C [GL-0002]	–	–	–	–	–	–	–	–	–	–	–	–	biphasic profile
HAEGTFISDYSIAMDKLAARDFINWLIQTKITD-NH2 (C-terminus assumed) [Co-7]	0.0086 ± 0.0069 nM	Additive (CI 0.85-1.15: additive)	Antagonism (CI 1.45-3.3: antagonism)	115.6%	very modest	2.30 ± 1.01	1.53 ± 1.10	58.05%	271.28	Very strong antagonism (CI>10: very strong antagonism)	1.48 nM	1.48 nM	–

— patent US12617831B2 (UNIVERSITE D'ANGERS, priority 2019, dated 2026)
